In BindingDB's records for doi:10.1016/j.bmcl.2012.07.045 (Rhône-Poulenc Rorer, 2012):

Target: Tyrosine-protein kinase SYK (Homo sapiens) (UniProt P43405)
Assay: Inhibition of human recombinant full-length Syk using poly-GT as substrate after 40 mins by radioactive filtration assay

Compound	IC50
Cc1ccnc(Nc2cccc(-c3cccc(CN)c3)n2)c1	1670 nM
c1cc(-c2cccc(Nc3cnccn3)n2)cc(N2CCNCC2)c1	43 nM
Cc1ccnc(Nc2cccc(-c3ccnc(N4CCC(N)C4)c3)n2)c1 (configuration not stated)	450 nM
Cc1ccnc(Nc2cccc(-c3ccnc(NCCO)c3)n2)c1	1870 nM
c1cc(Nc2cnccn2)nc(-c2ccnc(N3CCNCC3)c2)c1	62 nM
Cc1ccnc(Nc2cccc(-c3cccnc3)n2)c1	2700 nM
Cc1ccnc(Nc2cccc(-c3ccnc(NCCCN)c3)n2)c1	528 nM
Cc1ccnc(Nc2cccc(-c3ccnc(N4CCC(N)CC4)c3)n2)c1	114 nM
O=C(Nc1cc(Nc2cnccn2)nc(-c2ccnc(N3CCNCC3)c2)c1)c1ccccc1	28 nM
Cc1ccnc(Nc2cccc(-c3cccc(N)c3)n2)c1	3240 nM
Cc1ccnc(Nc2cccc(-c3ccnc(NCCN)c3)n2)c1	200 nM
Cc1ccnc(Nc2cccc(-c3cccc(CCN)c3)n2)c1	160 nM
Cc1ccnc(Nc2cccc(-c3cccc(NCCN)c3)n2)c1	91 nM

Now those with a lower IC50, led by results:

IC50	Compound
27 nM	Cc1ccnc(Nc2cccc(-c3ccnc(N4CCCNCC4)c3)n2)c1
14 nM	Cc1ccnc(Nc2cccc(-c3ccnc(N4CCNCC4)c3)n2)c1
10 nM	O=C(Nc1cc(Nc2cnccn2)nc(-c2ccnc(N3CCNCC3)c2)c1)c1ccc(C(=O)O)nc1
9 nM	O=C(Nc1cc(Nc2cnccn2)nc(-c2ccnc(N3CCNCC3)c2)c1)c1cncnc1
8 nM	Oc1ccc(CNc2cc(Nc3cnccn3)nc(-c3ccnc(N4CCNCC4)c3)c2)cc1
8 nM	O=C(O)c1ccc(C(=O)Nc2cc(Nc3cnccn3)nc(-c3ccnc(N4CCNCC4)c3)c2)cc1
7 nM	Cc1cc(C(=O)Nc2cc(Nc3cnccn3)nc(-c3ccnc(N4CCNCC4)c3)c2)n(C)n1
6 nM	O=C(Nc1cc(Nc2cnccn2)nc(-c2ccnc(N3CCNCC3)c2)c1)c1cccnc1
5 nM	CC(=O)N1CCC(C(=O)Nc2cc(Nc3cnccn3)nc(-c3ccnc(N4CCNCC4)c3)c2)CC1
4 nM	CNc1cc(Nc2cnccn2)nc(-c2ccnc(N3CCNCC3)c2)c1
4 nM	O=C(Cc1cccnc1)Nc1cc(Nc2cnccn2)nc(-c2ccnc(N3CCNCC3)c2)c1
4 nM	Nc1cc(Nc2cnccn2)nc(-c2ccnc(N3CCNCC3)c2)c1
4 nM	O=C(Nc1cc(Nc2cnccn2)nc(-c2ccnc(N3CCNCC3)c2)c1)C1CCNCC1
1.8 nM	FC(F)(F)c1ccnc(Nc2cccc(-c3ccnc(N4CCNCC4)c3)n2)c1
